Source: US12209080B2, “Polymorphic forms of kinase inhibitor compound, pharmaceutical composition containing same, preparation method therefor and use thereof” (EQUINOX SCIENCES, LLC, priority 2016, dated 2025)
Converted amounts (≈) assume the structure as drawn.

Assays:
[1] = Grinding stability experiment (XRD); type: physicochemical; settings: ground and sieved, US standard 200-300 mesh
Procedure: Crystalline form 1 was ground and sieved. The US standard 200-300 mesh sieved samples were collected and XRD analyzed. Analysis conditions: Shimadzu XRD-6000, CuK source (1.54056 Å) 40 kV, 30 mA; detection angle: 5-50°, speed: 5°/min.

[2] = Stability of the crystalline forms (HPLC, XRD, DSC); type: physicochemical; settings: for HPLC Maximum single impurity %: retention time (min) in brackets
Procedure: Experimental conditions: the samples were sealed and placed at 80° C. for 24 hours, and then placed in an open dish at 25° C./60% RH (relative humidity) and 40° C./75% RH for 7 days. Detection method: HPLC (only for the starting samples and samples placed at 80° C. for 24 hours), XRD, DSC.
In addition, the long-term stabilities of the crystalline form 1 for 12 months, 24 months, 36 months, and 48 months at 25° C./60% RH were also investigated.

[3] = Tissue accumulation experiment in tumor-bearing mice; type: in vivo, BALB/cA nude mice; parameters: content in Tumor / content in Liver / content in Kidney / content in Heart / content in Lung / content in Muscle / content in Brain: unit not given here
Procedure: Human colon cancer H-29 cells were implanted into the armpits of BALB/cA nude mice. Seven days after the implantation of H-29 cells, 8 female mice were administered with the crystalline form 1 (twice a day) at 40 mg/kg or sunitinib at 40 mg/kg (once a day). The drug administration was continuous for 21 days. Plasma, tissue and tumor samples were collected for analysis 4 hours after the administration on the 22nd day morning.

[4] = Dynamic vapor sorption (DVS) / moisture absorption; type: physicochemical; settings: for weight change (DVS): range of 0% RH to 80% RH, 25° C.
Procedure: (4) Dynamic Water Adsorption (DVS), TA Instruments Q5000 TGA; controlling software: Thermal Advantage; analysis software: Universal Analysis; sample plate: platinum crucible; amount of the sample to be detected: 1-10 mg; protective gas: nitrogen; gas flow fate: 10 mL/min; detection method: equilibration at 25° C., humidity: 0%, isothermal treatment: 90 min, weight change to be detected: from 0% RH to 80% RH;
(§1) The moisture content, solubility and dissolution rate of the crystalline forms 1 and 2 were detected using the methods described above. The results are shown in Table 21, which indicate that the solubility, dissolution, and moisture content (total pharmaceutical properties) of the crystalline form 1 are higher than that of the crystalline form 2. Moreover, the crystalline forms 1 and 2 have the highest solubility in methanol.

[5] = Stability of crystalline form 1 in aqueous methanol (XRPD detection); type: physicochemical
Excerpt: The stability of the crystalline form 1 in aqueous methanol solution at different temperature and for different time is as follows.

[6] = Moisture-induced crystallization experiment (XRD); type: physicochemical; settings: room temperature, 58-97% RH, up to 10 days
Procedure: About 10 mg of the crystalline form 1 was taken and placed in the corresponding environment, and the solid was detection by XRD at different time.

[7] = Solubility of crystalline forms 1 and 2 in various media; type: physicochemical
Excerpt: as §1

[8] = Pharmacokinetic experiment, oral administration; type: in vivo, Sprague Dawley rats; settings: rat, oral 10 mg/kg; for AUC(0-t) / Cmax: suspension in 0.5% CMC, 10 mg/kg
Procedure: Twelve Sprague Dawley rats with weight of 230-250 g were randomly divided into 2 groups, wherein each group consisted of 3 males and 3 females. Crystalline forms 1 and 2 were separately prepared as suspensions in 0.5% carboxymethylcellulose (CMC). The rats were fasted for 12 hours with free access to water and then orally administered at a dose of 10 mg/kg. Blood samples (0.2-0.3 ml) before and after 15, 30, 60, 120, 240, 360, 480, 720, 1440 minutes of the oral administration were collected in heparin anticoagulation tubes, which were then centrifuged to obtain plasma. The plasma was stored at −20° C., followed by analysis using API 4000 MS in conjunction with a HPLC unit. The pharmacokinetic parameters Cmax and AUC were calculated according to the determined plasma concentrations and summarized in Table 22.

[9] = Solubility determination in water by HPLC; type: physicochemical; settings: suspension in water, 25° C.
Procedure: HPLC detection was performed using the crystalline form 1 as a standard, with its concentration of 204.2 μg*mL^−1 and its content set as 100%, and the detection was performed 7 times. The average peak area was 159.691 mAU*min (retention time was 7.4 min).

[10] = 40 mg/kg for 21 days (crystalline form 1 twice a day, sunitinib once a day), 4 hours after administration on day 22

With `Cc1[nH]c(/C=C2\C(=O)Nc3ccc(F)cc32)c(C)c1C(=O)N[C@H]1CCN(C(=O)N(C)C)C1` [crystalline form 1, 5-[5-fluoro-2-oxo-1,2-dihydro-indole-(3Z)-ylidenemethyl]-2,4-dimethyl-1H-pyrrole-3-carboxylic acid ((S)-1-dimethylcarbamoyl-pyrrolidin-3-yl)-amide] the “stability during grinding (XRD pattern before and after)” value [1] was “remained stable”, the “HPLC Purity %” value ([2]; 0 day (starting sample)) was 99.67% and the “HPLC Maximum single impurity %” value ([2]; 0 day (starting sample)) was 0.22 (4.73) %. For the same compound, the “long-term stability of the crystalline form” value ([2]; 12, 24, 36 and 48 months at 25° C./60% RH) was “substantially unchanged”, the “crystalline form and melting point by XRD and DSC” value ([2]; sealed 80° C. 24 hours, open dish 25° C./60% RH and 40° C./75% RH for 7 days) was “substantially unchanged” and the “HPLC Purity %” value ([2]; sealed, 80° C./24 h) was 98.87%. For the same compound, the “HPLC Maximum single impurity %” value ([2]; sealed, 80° C./24 h) was 1.03 (4.73) %, the “content in Brain” value [3, 10] was 9.3 and the “content in Heart” value [3, 10] was 124.8. The “content in Kidney” value [3, 10] was 418.3, the “content in Liver” value [3, 10] was 1,715.3 and the “content in Lung” value [3, 10] was 144.9. For the same compound, the “content in Muscle” value [3, 10] was 77.6, the “content in Plasma” value [3, 10] was 191.6 and the “content in Tumor” value [3, 10] was 153.4. The “content in plasma, compared with sunitinib” value ([3]; 40 mg/kg twice a day, 21 days) was “comparable to that of sunitinib”, the “tissue accumulation in all tested tissues, compared with sunitinib” value ([3]; 40 mg/kg twice a day, 21 days) was “significantly lower than that of sunitinib” and the Moisture absorption ([4]; RH 50%) was 2.015%. For the same compound, the Moisture absorption ([4]; RH 80%) was 2.578%, the “weight change (DVS)” value [4] was “about 2.8%” and the “weight change (DVS)” value ([4]; listed as Crystalline form 1) was 2.8%. The XRPD detection ([5]; 2.0 g in 50 mL methanol, moisture (KF) 0.1%, 20-30° C., 2 hrs) was “form 1”, the XRPD detection ([5]; 2.0 g in 50 mL methanol, moisture (KF) 0.1%, 20-30° C., 4 hrs) was “form 1” and the XRPD detection ([5]; 2.0 g in 50 mL methanol, moisture (KF) 0.1%, 20-30° C., 8 hrs) was “form 1”. The XRPD detection ([5]; 2.0 g in 50 mL methanol, moisture (KF) 0.1%, 20-30° C., 21 hrs) was “form 1”, the XRPD detection ([5]; 2.0 g in 50 mL methanol, moisture (KF) 5.2%, 20-30° C., 2 hrs) was “form 1” and the XRPD detection ([5]; 2.0 g in 50 mL methanol, moisture (KF) 5.2%, 20-30° C., 4 hrs) was “form 1”. For the same compound, the XRPD detection ([5]; 2.0 g in 50 mL methanol, moisture (KF) 5.2%, 20-30° C., 8 hrs) was “form 1”, the XRPD detection ([5]; 2.0 g in 50 mL methanol, moisture (KF) 5.2%, 20-30° C., 21 hrs) was “form 1” and the XRPD detection ([5]; 2.0 g in 50 mL methanol, moisture (KF) 10%, 20-30° C., 2 hrs) was “form 1”. For the same compound, the XRPD detection ([5]; 2.0 g in 50 mL methanol, moisture (KF) 10%, 20-30° C., 4 hrs) was “form 1”, the XRPD detection ([5]; 2.0 g in 50 mL methanol, moisture (KF) 10%, 20-30° C., 8 hrs) was “form 1” and the XRPD detection ([5]; 2.0 g in 50 mL methanol, moisture (KF) 10%, 20-30° C., 21 hrs) was “form 1”. For the same compound, the XRPD detection ([5]; 5.0 g in 50 mL methanol, moisture (KF) 0.1%, reflux, 2 hrs) was “form 1”, the XRPD detection ([5]; 5.0 g in 50 mL methanol, moisture (KF) 0.1%, reflux, 4 hrs) was “form 1” and the XRPD detection ([5]; 5.0 g in 50 mL methanol, moisture (KF) 0.1%, reflux, 8 hrs) was “form 2”. The XRPD detection ([5]; 5.0 g in 50 mL methanol, moisture (KF) 0.1%, reflux, 21 hrs) was “form 2”, the XRPD detection ([5]; 5.0 g in 50 mL methanol, moisture (KF) 5.2%, reflux, 2 hrs) was “form 1” and the XRPD detection ([5]; 5.0 g in 50 mL methanol, moisture (KF) 5.2%, reflux, 4 hrs) was “form 1 + form 2”. The XRPD detection ([5]; 5.0 g in 50 mL methanol, moisture (KF) 5.2%, reflux, 8 hrs) was “form 2”, the XRPD detection ([5]; 5.0 g in 50 mL methanol, moisture (KF) 5.2%, reflux, 21 hrs) was “form 2” and the XRPD detection ([5]; 5.0 g in 50 mL methanol, moisture (KF) 10%, reflux, 2 hrs) was “form 1”. The XRPD detection ([5]; 5.0 g in 50 mL methanol, moisture (KF) 10%, reflux, 4 hrs) was “form 2”, the XRPD detection ([5]; 5.0 g in 50 mL methanol, moisture (KF) 10%, reflux, 8 hrs) was “form 2” and the XRPD detection ([5]; 5.0 g in 50 mL methanol, moisture (KF) 10%, reflux, 21 hrs) was “form 2”. For the same compound, the “stability under humidity conditions (overall)” value [6] was “stable”, the Solubility ([7]; 1% Tween 80) was 60 µg/mL (≈ 137 µM) and the Solubility ([7]; 1% sodium lauryl sulfate) was 3480 µg/mL (≈ 7920 µM). For the same compound, the Solubility ([7]; 2% sodium lauryl sulfate) was 3790 µg/mL (≈ 8620 µM), the Solubility ([7]; PEG 400) was 3660 µg/mL (≈ 8330 µM) and the Solubility ([7]; acetonitrile) was 680 µg/mL (≈ 1550 µM). The Solubility ([7]; aqueous solution with pH of 1.0-7.5) was 0.12 to 0.53 µg/mL, the solubility at 4 h ([7]; artificial gastric juice, simulated gastric fluid, thermodynamic from solid, second line of this heading (Table 21 r21)) was 0.43 µg/mL (≈ 0.978 µM) and the Solubility ([7]; ethanol) was 2460 µg/mL (≈ 5600 µM). For the same compound, the Solubility ([7]; glycerin) was 570 µg/mL (≈ 1300 µM), the Solubility ([7]; methanol) was 8170 µg/mL (≈ 18600 µM) and the “Cmax relative to crystalline form 2” value [8] was “about 4 times”. The “exposure (AUC) relative to crystalline form 2” value [8] was “about 3 times”, the “AUC(0-t)” value ([8]; average value) was 10488.3 ng·h/mL and the Cmax ([8]; average value) was 1340.3 ng/mL. The “AUC(0-t)” value ([8]; female 1) was 3536.6 ng·h/mL, the Cmax ([8]; female 1) was 593.9 ng/mL and the “AUC(0-t)” value ([8]; female 2) was 28571.4 ng·h/mL. For the same compound, the Cmax ([8]; female 2) was 2649.0 ng/mL, the “AUC(0-t)” value ([8]; female 3) was 16634.2 ng·h/mL and the Cmax ([8]; female 3) was 2033.3 ng/mL. The “AUC(0-t)” value ([8]; male 1) was 3180.0 ng·h/mL, the Cmax ([8]; male 1) was 716.6 ng/mL and the “AUC(0-t)” value ([8]; male 2) was 6766.0 ng·h/mL. The Cmax ([8]; male 2) was 1071.3 ng/mL, the “AUC(0-t)” value ([8]; male 3) was 4241.5 ng·h/mL and the Cmax ([8]; male 3) was 977.7 ng/mL. For the same compound, the “concentration (solubility in water)” value ([9]; 0.5 hours) was 1.12 µg/mL and the “concentration (solubility in water)” value ([9]; 4 hours) was 1.32 µg/mL.
